Measured values reported in PubChem BioAssay (NCI).
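Interpolation was linear, between the two tested concentrations surrounding the appropriate level; five concentrations were tested over 48 hours in 96-well plates. TGI is the concentration that stops growth completely.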

Legend:
Experiment in all cases: inhibition of tumour cell growth, NCI panel, 48 h
786-0 renal = tested on: 786-0 renal
A498 renal = tested on: A498 renal
A549 NSCLC = tested on: A549 NSCLC
ACHN renal = tested on: ACHN renal
CAKI-1 renal = tested on: CAKI-1 renal
CCRF-CEM leukemia = tested on: CCRF-CEM leukemia
COLO 205 colon = tested on: COLO 205 colon
DLD-1 colon = tested on: DLD-1 colon
DMS 114 small cell lung = tested on: DMS 114 small cell lung
DMS 273 small cell lung = tested on: DMS 273 small cell lung
EKVX NSCLC = tested on: EKVX NSCLC
HCC-2998 colon = tested on: HCC-2998 colon
HCT-116 colon = tested on: HCT-116 colon
HCT-15 colon = tested on: HCT-15 colon
HL-60(TB) leukemia = tested on: HL-60(TB) leukemia
HOP-18 NSCLC = tested on: HOP-18 NSCLC
HOP-62 NSCLC = tested on: HOP-62 NSCLC
HOP-92 NSCLC = tested on: HOP-92 NSCLC
HT29 colon = tested on: HT29 colon
IGROV1 ovarian = tested on: IGROV1 ovarian
K-562 leukemia = tested on: K-562 leukemia
KM12 colon = tested on: KM12 colon
KM20L2 colon = tested on: KM20L2 colon
LOX IMVI melanoma = tested on: LOX IMVI melanoma
LXFL 529 NSCLC = tested on: LXFL 529 NSCLC
M14 melanoma = tested on: M14 melanoma
M19-MEL melanoma = tested on: M19-MEL melanoma
MALME-3M melanoma = tested on: MALME-3M melanoma
MOLT-4 leukemia = tested on: MOLT-4 leukemia
NCI-H226 lung = tested on: NCI-H226 lung
NCI-H23 lung = tested on: NCI-H23 lung
NCI-H460 lung = tested on: NCI-H460 lung
NCI-H522 lung = tested on: NCI-H522 lung
OVCAR-3 ovarian = tested on: OVCAR-3 ovarian
OVCAR-4 ovarian = tested on: OVCAR-4 ovarian
OVCAR-5 ovarian = tested on: OVCAR-5 ovarian
OVCAR-8 ovarian = tested on: OVCAR-8 ovarian
RPMI-8226 leukemia = tested on: RPMI-8226 leukemia
RXF 393 renal = tested on: RXF 393 renal
SF-268 CNS = tested on: SF-268 CNS
SF-295 CNS = tested on: SF-295 CNS
SF-539 CNS = tested on: SF-539 CNS
SK-MEL-2 melanoma = tested on: SK-MEL-2 melanoma
SK-MEL-28 melanoma = tested on: SK-MEL-28 melanoma
SK-MEL-5 melanoma = tested on: SK-MEL-5 melanoma
SK-OV-3 ovarian = tested on: SK-OV-3 ovarian
SN12C renal = tested on: SN12C renal
SNB-19 CNS = tested on: SNB-19 CNS
SNB-75 CNS = tested on: SNB-75 CNS
SNB-78 CNS = tested on: SNB-78 CNS
SR leukemia = tested on: SR leukemia
SW-620 colon = tested on: SW-620 colon
TK-10 renal = tested on: TK-10 renal
U251 CNS = tested on: U251 CNS
UACC-257 melanoma = tested on: UACC-257 melanoma
UACC-62 melanoma = tested on: UACC-62 melanoma
UO-31 renal = tested on: UO-31 renal

CCOC(=O)c1c(NNc2ccccc2)nc2ccccc2c1-c1ccccc1
TGI (786-0 renal): > 100 µM | TGI (A498 renal): > 100 µM | TGI (A549 NSCLC): 95.7 µM | TGI (ACHN renal): > 100 µM | TGI (CAKI-1 renal): > 100 µM | TGI (CCRF-CEM leukemia): 58.3 µM | TGI (COLO 205 colon): > 100 µM | TGI (DLD-1 colon): > 100 µM | TGI (DMS 114 small cell lung): 32.9 µM | TGI (DMS 273 small cell lung): > 100 µM | TGI (EKVX NSCLC): > 100 µM | TGI (HCC-2998 colon): > 100 µM | TGI (HCT-116 colon): 47.2 µM | TGI (HCT-15 colon): > 100 µM | TGI (HL-60(TB) leukemia): 44.3 µM | TGI (HOP-18 NSCLC): 77.3 µM | TGI (HOP-62 NSCLC): 59.3 µM | TGI (HOP-92 NSCLC): > 100 µM | TGI (HT29 colon): > 100 µM | TGI (IGROV1 ovarian): > 100 µM | TGI (K-562 leukemia): 77.9 µM | TGI (KM12 colon): > 100 µM | TGI (KM20L2 colon): > 100 µM | TGI (LOX IMVI melanoma): 40.1 µM | TGI (LXFL 529 NSCLC): > 100 µM | TGI (M14 melanoma): 80.8 µM | TGI (M19-MEL melanoma): 52.5 µM | TGI (MALME-3M melanoma): 64.3 µM | TGI (MOLT-4 leukemia): 42.9 µM | TGI (NCI-H226 lung): 92 µM | TGI (NCI-H23 lung): 50.9 µM | TGI (NCI-H460 lung): 67.3 µM | TGI (NCI-H522 lung): 56.8 µM | TGI (OVCAR-3 ovarian): 67 µM | TGI (OVCAR-4 ovarian): > 100 µM | TGI (OVCAR-5 ovarian): > 100 µM | TGI (OVCAR-8 ovarian): 82.2 µM | TGI (RPMI-8226 leukemia): 47.3 µM | TGI (RXF 393 renal): 86.3 µM | TGI (SF-268 CNS): 91.9 µM | TGI (SF-295 CNS): > 100 µM | TGI (SF-539 CNS): 74.9 µM | TGI (SK-MEL-2 melanoma): 32.1 µM | TGI (SK-MEL-28 melanoma): > 100 µM | TGI (SK-MEL-5 melanoma): 35.2 µM | TGI (SK-OV-3 ovarian): > 100 µM | TGI (SN12C renal): 92.3 µM | TGI (SNB-19 CNS): > 100 µM | TGI (SNB-75 CNS): 93.2 µM | TGI (SNB-78 CNS): 88.6 µM | TGI (SR leukemia): 56.4 µM | TGI (SW-620 colon): > 100 µM | TGI (TK-10 renal): > 100 µM | TGI (U251 CNS): > 100 µM | TGI (UACC-257 melanoma): > 100 µM | TGI (UACC-62 melanoma): 32 µM | TGI (UO-31 renal): 66.3 µM

CC(=O)O[C@]1(C)CCC2C(C)C(=O)OC2C2C(C)[C@@H](O)CC21 (some centres not stated)
TGI (786-0 renal): > 100 µM | TGI (A498 renal): > 100 µM | TGI (A549 NSCLC): > 100 µM | TGI (ACHN renal): > 100 µM | TGI (CAKI-1 renal): > 100 µM | TGI (CCRF-CEM leukemia): > 100 µM | TGI (COLO 205 colon): 36.2 µM | TGI (DLD-1 colon): > 100 µM | TGI (DMS 273 small cell lung): 54.5 µM | TGI (EKVX NSCLC): > 100 µM | TGI (HCC-2998 colon): 58 µM | TGI (HCT-116 colon): 50.8 µM | TGI (HCT-15 colon): 32.5 µM | TGI (HL-60(TB) leukemia): 34.2 µM | TGI (HOP-18 NSCLC): > 100 µM | TGI (HOP-62 NSCLC): 45.2 µM | TGI (HOP-92 NSCLC): 91.3 µM | TGI (HT29 colon): > 100 µM | TGI (IGROV1 ovarian): > 100 µM | TGI (K-562 leukemia): 54.9 µM | TGI (KM12 colon): > 100 µM | TGI (KM20L2 colon): 71.2 µM | TGI (LOX IMVI melanoma): 34.2 µM | TGI (LXFL 529 NSCLC): 59 µM | TGI (M14 melanoma): 47.9 µM | TGI (M19-MEL melanoma): 57.4 µM | TGI (MALME-3M melanoma): > 100 µM | TGI (NCI-H226 lung): > 100 µM | TGI (NCI-H23 lung): > 100 µM | TGI (NCI-H460 lung): > 100 µM | TGI (NCI-H522 lung): 34.4 µM | TGI (OVCAR-3 ovarian): 47.3 µM | TGI (OVCAR-4 ovarian): > 100 µM | TGI (OVCAR-5 ovarian): > 100 µM | TGI (OVCAR-8 ovarian): > 100 µM | TGI (RPMI-8226 leukemia): 60.1 µM | TGI (RXF 393 renal): 82.5 µM | TGI (SF-268 CNS): > 100 µM | TGI (SF-295 CNS): > 100 µM | TGI (SF-539 CNS): > 100 µM | TGI (SK-MEL-2 melanoma): 58.3 µM | TGI (SK-MEL-28 melanoma): > 100 µM | TGI (SK-MEL-5 melanoma): 89.7 µM | TGI (SK-OV-3 ovarian): > 100 µM | TGI (SN12C renal): > 100 µM | TGI (SNB-19 CNS): > 100 µM | TGI (SNB-75 CNS): > 100 µM | TGI (SNB-78 CNS): > 100 µM | TGI (SR leukemia): > 100 µM | TGI (SW-620 colon): 31.2 µM | TGI (TK-10 renal): > 100 µM | TGI (U251 CNS): > 100 µM | TGI (UACC-257 melanoma): > 100 µM | TGI (UACC-62 melanoma): 89.5 µM | TGI (UO-31 renal): > 100 µM

CCOC(=O)/C=C1/Oc2ccccc2C1(C)O (configuration not stated)
TGI (786-0 renal): > 100 µM | TGI (A498 renal): > 100 µM | TGI (A549 NSCLC): > 100 µM | TGI (ACHN renal): > 100 µM | TGI (CAKI-1 renal): > 100 µM | TGI (CCRF-CEM leukemia): > 100 µM | TGI (COLO 205 colon): > 100 µM | TGI (DLD-1 colon): > 100 µM | TGI (DMS 114 small cell lung): > 100 µM | TGI (DMS 273 small cell lung): > 100 µM | TGI (EKVX NSCLC): > 100 µM | TGI (HCC-2998 colon): > 100 µM | TGI (HCT-116 colon): > 100 µM | TGI (HCT-15 colon): > 100 µM | TGI (HL-60(TB) leukemia): > 100 µM | TGI (HOP-18 NSCLC): > 100 µM | TGI (HOP-62 NSCLC): > 100 µM | TGI (HOP-92 NSCLC): > 100 µM | TGI (HT29 colon): > 100 µM | TGI (IGROV1 ovarian): > 100 µM | TGI (K-562 leukemia): > 100 µM | TGI (KM12 colon): > 100 µM | TGI (KM20L2 colon): > 100 µM | TGI (LOX IMVI melanoma): > 100 µM | TGI (LXFL 529 NSCLC): > 100 µM | TGI (M14 melanoma): > 100 µM | TGI (M19-MEL melanoma): > 100 µM | TGI (MALME-3M melanoma): > 100 µM | TGI (MOLT-4 leukemia): > 100 µM | TGI (NCI-H226 lung): > 100 µM | TGI (NCI-H23 lung): > 100 µM | TGI (NCI-H460 lung): > 100 µM | TGI (NCI-H522 lung): > 100 µM | TGI (OVCAR-3 ovarian): > 100 µM | TGI (OVCAR-4 ovarian): > 100 µM | TGI (OVCAR-5 ovarian): > 100 µM | TGI (OVCAR-8 ovarian): > 100 µM | TGI (RPMI-8226 leukemia): > 100 µM | TGI (RXF 393 renal): > 100 µM | TGI (SF-268 CNS): > 100 µM | TGI (SF-295 CNS): > 100 µM | TGI (SK-MEL-2 melanoma): > 100 µM | TGI (SK-MEL-28 melanoma): > 100 µM | TGI (SK-MEL-5 melanoma): > 100 µM | TGI (SK-OV-3 ovarian): > 100 µM | TGI (SN12C renal): > 100 µM | TGI (SNB-19 CNS): > 100 µM | TGI (SNB-75 CNS): > 100 µM | TGI (SNB-78 CNS): > 100 µM | TGI (SW-620 colon): > 100 µM | TGI (TK-10 renal): > 100 µM | TGI (U251 CNS): > 100 µM | TGI (UACC-257 melanoma): > 100 µM | TGI (UACC-62 melanoma): > 100 µM | TGI (UO-31 renal): > 100 µM
